Measurements: patent US20170340648A1, “Pharmaceutical Compositions Affecting Bioenergetic Processes in a Eukaryotic Biological System and Methods of Treatment” (JOYCE BIOTECH CORP., priority 2016, published 2017)
“Also recorded” adds a separate entry of the source.

Columns and labels:
[1] = rat, in vivo; cited from earlier work
C2C12 murine myoblasts = type: cell-based
Protocol: In the experiment, immortalized murine C2C12 myoblast cells were exposed to various pre-assay growth conditions prior to being seeded into a Seahorse XF24 Extracellular Flux Analyzer cell culture plate. The basal oxygen consumption (OCR) and extracellular acidification (ECAR) rates were measured to establish baseline metabolic rates for each experimental culture condition. The cells were then metabolically perturbed by the successive addition of three different compounds that shift the bioenergetic profile of the cell.
The first compound added following the collection of baseline metabolic data was oligomycin.
The second agent injected, carbonyl cyanide-p-trifluoromethoxyphenylhydrazone (FCCP), is an ionophore that is a mobile ion carrier.
Rotenone, a Complex I inhibitor, is the third agent injected in sequence, it prevents the transfer of electrons from the Fe—S center in Complex I to ubiquinone (Coenzyme Q).
Rotenone exposure inhibits mitochondrial respiration and enables both the mitochondrial and non-mitochondrial fractions contributing to respiration to be calculated.
Statistical analysis was conducted via two-tailed Mann-Whitney U test of variance. U and P values were calculated using algorithms supplied by the Meta Numerics and ALGLIB statistical libraries. During calculations, when the value of N (the number of scores) was equal to or greater than 10, it was assumed that the sampling distribution was approximately normal, and a Z-ratio was also employed to calculate the value of P. The threshold for significance was set at P≦to 0.05 (Table 27A1 to Table 27F2).
C2C12 murine myoblast cells were placed into pre-assay growth condition categories and cultured for 24 hours.
CSC12 murine myoblast cells were seeded into a Seahorse XF24 24 well culture plate at a density of 10,000 cells/well in 100 microliters of Growth Medium.
The seeded XF24 culture plates were placed into a 37 degree Centigrade incubator at 10% CO2 for 24 hours. […]

glucocorticoid receptors = settings: cultured cells; cited from earlier work

For `O=CC[C@@H](O)[C@H](O)[C@H](O)CO` [2-Deoxy-d-Glucose], which cardiac toxicity [1] is on record?
Its cardiac toxicity is “cardiotoxicity”.

What does the source list for `C=C(C)[C@H]1Cc2c(ccc3c2O[C@@H]2COc4cc(OC)c(OC)cc4[C@@H]2C3=O)O1` [Rotenone]?
oxygen consumption rate (OCR) relative to Control condition (C2C12 murine myoblasts; 24 h pre-assay incubation for compositions, Rotenone 2.0 μM injected, basal and FCCP conditions): significantly reduced; also recorded: decreased; anaerobic metabolic activity as indicated by extracellular acidification rate (ECAR) relative to untreated control (C2C12 murine myoblasts; basal, Met/Mife 25 uM/50 uM (Table 27A1), MET/KET 1 mM/50 uM (Table 27F3), Rotenone 2.0 μM): increased

With `CC(=O)N1CCN(c2ccc(OCC3COC(Cn4ccnc4)(c4ccc(Cl)cc4Cl)O3)cc2)CC1` (stereo not shown) [ketoconazole] as the compound, how does the glucocorticoid receptor activity (glucocorticoid receptors) read?
The glucocorticoid receptor activity was “antagonist”.
